Assay results: PMC10220285, “Development of an assay pipeline for the discovery of novel small molecule inhibitors of human glutathione peroxidases GPX1 and GPX4” (Redox Biology, 2023)
Read-outs that look alike come from different tables or passages of the source.

Columns and labels:
Assay type in all cases: biochemical
human TXNRD1 = target: T1, human TXNRD1 (Homo sapiens, UniProt Q16881); assay: Thioredoxin reductase 1 (TXNRD1) inhibition assay (selenite reduction); settings: for inhibition of TXNRD1: Fig. 9 pan-selenoprotein inhibitors
T1 construct: made in house
T1 sequence (Q16881 1-499 isoform Q16881-5): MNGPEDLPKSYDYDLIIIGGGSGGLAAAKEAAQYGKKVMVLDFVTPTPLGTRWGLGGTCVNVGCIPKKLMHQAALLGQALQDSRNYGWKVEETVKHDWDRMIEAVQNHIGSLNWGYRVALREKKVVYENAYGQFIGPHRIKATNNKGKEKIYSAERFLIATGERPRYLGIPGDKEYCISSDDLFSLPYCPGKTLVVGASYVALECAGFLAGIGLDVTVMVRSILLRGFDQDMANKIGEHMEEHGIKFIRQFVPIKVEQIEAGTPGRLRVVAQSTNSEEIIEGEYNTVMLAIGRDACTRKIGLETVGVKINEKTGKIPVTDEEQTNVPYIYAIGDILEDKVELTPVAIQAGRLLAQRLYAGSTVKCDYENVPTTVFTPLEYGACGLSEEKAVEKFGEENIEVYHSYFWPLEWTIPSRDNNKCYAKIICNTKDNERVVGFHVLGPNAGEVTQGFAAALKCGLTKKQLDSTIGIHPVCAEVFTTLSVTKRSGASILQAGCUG
Protocol: (§1) The compound plates were prepared as described previously. Purified recombinant human GPX1, GPX2, GPX4, GR, and TXNRD1 were produced and purified as previously reported [[48], [49], [50]]. As production of GPX2 was not optimized at the onset of screening, only GPX1 and GPX4 underwent library screening, and GPX2 was used as a follow-up.
(§2) Follow-up and orthogonal assays were run in quadruplicate unless otherwise stated. Assay schemes are illustrated in Fig. 1.
TXNRD1 activity was assessed using a modified 1536-well TXNRD1 inhibition assay, based upon TXNRD1-catalyzed selenite reduction as previously described (Fig. 1D). […] TE buffer was dispensed into column 1 and 2 as a no-enzyme control. Finally, 1 μL of sodium selenite in TE buffer was dispensed into each well for final concentrations of 90 nM hTXNRD1, 0.4 mM NADPH, and 0.4 mM sodium selenite. The plate was read in a Viewlux multimodal detector in kinetic mode and fluorescence at 340 nm/450 nm was measured every minute for 8 min.
Percent activity was determined by first calculating delta RFU (decrease in fluorescence between t = 0 and t = 20/30 min in primary GPX, GR counter-screen, and TXNRD1 assays, or increase in fluorescence between t = 0 and t = 20 min in the Monobromobimane GPX endpoint assay), and normalizing enzyme activity using median delta RFU values for DMSO-treated enzyme control, and DMSO-treated no-enzyme controls.
Compound inhibitory activity in the qHTS assays was determined by plotting dose-response data for each sample and fitting with a four-parameter logistic fit to assess IC50 values, efficacy (maximal response), and AUC (area under the curve), as previously described. Hits were classified by the quality of the concentration-response curves (CRC). Curve classes −1.1 and −1.2 being the highest-confidence actives with complete CRCs and classes −2.1 and −2.2 being lower-confidence actives with incomplete CRCs.

GPX1 = target: T2, GPX1 (Homo sapiens, UniProt P07203); assay: GR-coupled GPX1 activity assay (NADPH fluorescence, CHP substrate); settings: for inhibition of GPX1: Fig. 9 pan-selenoprotein inhibitors
T2 construct: made in house; host or cells: E. coli
T2 sequence (P07203 1-203): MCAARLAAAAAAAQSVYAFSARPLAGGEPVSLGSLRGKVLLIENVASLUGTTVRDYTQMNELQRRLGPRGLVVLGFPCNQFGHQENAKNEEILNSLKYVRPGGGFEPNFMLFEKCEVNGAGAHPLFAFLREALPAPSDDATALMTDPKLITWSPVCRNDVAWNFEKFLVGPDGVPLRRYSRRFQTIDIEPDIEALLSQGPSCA

human GPX2 = target: T3, human GPX2 (Homo sapiens, UniProt P18283); assay: GPX2 activity assay (follow-up isoform specificity); settings: for inhibition of GPX2: Fig. 9 pan-selenoprotein inhibitors
T3 construct: made in house
T3 sequence (P18283 1-190): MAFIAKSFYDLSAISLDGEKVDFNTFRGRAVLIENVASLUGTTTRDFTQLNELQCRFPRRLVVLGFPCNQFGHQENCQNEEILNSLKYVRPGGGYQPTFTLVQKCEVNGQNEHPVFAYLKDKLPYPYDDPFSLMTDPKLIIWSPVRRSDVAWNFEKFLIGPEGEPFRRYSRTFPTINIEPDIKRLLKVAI
Protocol: as §1, §2
Previous work has shown similarities in the substrate specificities of GPX1 and GPX2, and a more unique substrate profile of GPX4 [8].
The GPX2 isoform of human selenoprotein GPXs is found in epithelial cells and has similar substrate specificity with GPX1, but not as much with GPX4 [8]. Additionally, GPX1 and GPX2 both form homotetramers and share similarities in structural homology, although GPX2 has a much slower turnover rate.

[1] = listed as 2,3-dimercaptopropanesulfonic acid

Compound | IC50 (human TXNRD1; IC50 of resulting CRC, Table 2, read-out: IC50 TrxR1) | IC50 (GPX1; IC50 of resulting CRC, Table 2, read-out: IC50 GPx1) | IC50 (GPX1; assay validation, Fig. 2E, read-out: IC50, prior art GPX1 inhibitor activities in optimized assay) | IC50 (GPX1; compound present in the screening libraries (qHTS), read-out: IC50 GPX1, primary library screen) | IC50 (GPX1; initial tests comparing GR-coupled and mBBr assay formats, read-out: IC50 in the GR-coupled assay) | hit status in GPX1 qHTS (GPX1; primary library screen) | IC50 (human GPX2; IC50 of resulting CRC, Table 2) | inhibition of TXNRD1 (human TXNRD1) | inhibition of TXNRD1 (human TXNRD1; [1]) | inhibition of GPX1 (GPX1) | inhibition of GPX1 (GPX1; [1]) | inhibition of GPX2 (human GPX2) | inhibition of GPX2 (human GPX2; [1])
CC(=O)OC[C@H]1O[C@@H]([S-])[C@H](OC(C)=O)[C@@H](OC(C)=O)[C@@H]1OC(C)=O.CCP(CC)CC.[Au+] [Auranofin] | 19 µM | 4.6 µM | 4.84 µM | 2.26 µM | 1.94 µM | high-quality active hit for GPX1 in all three | 2100 nM |  |  |  |  |  | 
O=S(=O)(O)CC(S)CS (stereo not shown) [2,3-dimercaptopropanesulfonate] |  |  |  |  |  |  |  | inhibited all tested selenoproteins | inhibited all selenoproteins | inhibited all tested selenoproteins | inhibited all selenoproteins | inhibited all tested selenoproteins | inhibited all selenoproteins
